Here are results for four molecules from patent US20180015075A1, “METHODS AND COMPOSITIONS FOR TREATMENT OF VENOUS MALFORMATION” (Children's Hospital Medical Center, priority 2016, published 2018).

Each structure is given as a SMILES string. Where two headings read alike, the source gives them in different places.

One test has as its system Pik3ca^H1047R VM lesions. The conditions noted are these: mouse, in vivo; cited from earlier work.
The test system of test [1] is HUVEC-TIE2-L914F-GFP vascular channels. Kind of test: Fibrin gel bead assay. The format is cell-based, human. As to the method: Assay was performed as described(34). Briefly, coated the beads with HUVEC-GFP or HUVEC-TIE2-L914F-GFP cells (2500 beads with 1×10^6 cells) and mixed coated beads in fibrinogen solution at a concentration of ˜500 beads/ml. Then 0.625 Units/mL of thrombin and 0.5 ml beads/fibrinogen suspension were added per well in 24-well plate successively. After dotting in the 37° C.-incubator, added 1 ml EGM-2 medium and 20,000 fibroblasts per well on the top. Then beads treated by adding DMSO, Ponatinib, rapamycin or combination in the medium

Regarding `CO[C@H]1C[C@@H]2CC[C@@H](C)[C@@](O)(O2)C(=O)C(=O)N2CCCC[C@H]2C(=O)O[C@H]([C@H](C)C[C@@H]2CC[C@@H](OCCO)[C@H](OC)C2)CC(=O)[C@H](C)/C=C(\C)[C@@H](O)[C@@H](OC)C(=O)[C@H](C)C[C@H](C)/C=C/C=C/C=C/1C` [Everolimus, 42-O-(2-Hydroxyethyl)-rapamycin], in the test with Pik3ca^H1047R VM lesions, the VM lesion growth result is given as “prevented lesion growth” and the “cell apoptosis (cleaved caspase-3 positive cells)” value is “did not induce cell apoptosis”.
In the case of `Cc1nc(NC(=O)N2CCC[C@H]2C(N)=O)sc1-c1ccnc(C(C)(C)C(F)(F)F)c1` [BYL719], in the test on Pik3ca^H1047R VM lesions, the VM lesion growth entry is “strongly inhibited VM lesion growth” and the “cell apoptosis (cleaved caspase-3 positive cells)” value is “increased the number of cleaved caspase-3 positive cells”.
As for `Cc1ccc(C(=O)Nc2ccc(CN3CCN(C)CC3)c(C(F)(F)F)c2)cc1C#Cc1cnc2cccnn12` [Ponatinib, 3-(2-imidazo[1,2-b]pyridazin-3-ylethynyl)-4-methyl-N-[4-[(4-methyl-1-piperazinyl)methyl]-3-(trifluoromethyl)phenyl]-benzamide], in test [1], the “tube formation (tube area at day 11)” value is “almost completely inhibited tube formation” and the “vascular/tube area expansion from day 8 to 14” value was determined as 14.79±4.53%.
Regarding `CO[C@H]1C[C@@H]2CC[C@@H](C)[C@@](O)(O2)C(=O)C(=O)N2CCCC[C@H]2C(=O)O[C@H]([C@H](C)C[C@@H]2CC[C@@H](O)[C@H](OC)C2)CC(=O)[C@H](C)/C=C(\C)[C@@H](O)[C@@H](OC)C(=O)[C@H](C)C[C@H](C)/C=C/C=C/C=C/1C` [Sirolimus, Rapamycin], the “vascular/tube area expansion from day 8 to 14” value in test [1] (100 nM Ponatinib or 10 nM rapamycin added from day 8, vehicle 54.50±3.81%) stood at 20.25±3.23%.
